Measurements: article PMC8795197, “Safety and activity of WX-0593 (Iruplinalkib) in patients with ALK- or ROS1-rearranged advanced non-small cell lung cancer: a phase 1 dose-escalation and dose-expansion trial” (Signal Transduction and Targeted Therapy, 2022)
Values joined by “and” are separate entries in the source; they are usually repeats but may differ in a detail not shown here. Equal entries are not always repeated. “Also recorded” adds a separate entry of the source. Where two headings read alike, the source gives them in different places.

Legend:
[1] = tested on: remaining 17 GPCR targets; assay: GPCR antagonist screening assay; format: cell-based; details: highest dose detected
[2] = target: Eta (Homo sapiens, UniProt P25101); assay: GPCR antagonist screening assay; format: cell-based
[3] = tested on: Karpas299 (NPM-ALK); assay: Cell proliferation inhibition assay; format: cell-based
[4] = in vivo; parameters: species or system nude mice; details: mouse
Method: The severely toxic dose in 10% of the animals (STD10) in rodents was > 30 mg/kg. At a dose of 10 mg/kg/day, AUC0-24h (Day 28) was 16800 h·ng/mL in males and 17300 h·ng/mL in females, which is 4.5 times and 4.7 times of the exposure at the effective dose in mice (2.5 mg/kg, AUC0-24h: 3700 h·ng/mL). At a dose of 30 mg/kg/day, AUC0-24h (Day 28) was 27100 h·ng/mL in males and 42400 h·ng/mL in females, which is 7.3 times and 11.5 times of the exposure at the effective dose in nude mice (2.5 mg/kg, AUC0-24h: 3700 h·ng/mL).

[5] = in vivo; details: cynomolgus monkey, po; for AUC(0-t) / Cmax: 50 mg/kg
[6] = tested on: NCI-H1975 (EGFR mutant L858R/T790M); assay: Cell proliferation inhibition assay; format: cell-based
[7] = tested on: advanced NSCLC patients with ALK or ROS1 rearrangement; assay: Phase 1 trial: safety (adverse events, DLT, MTD; NCI CTCAE 4.03); format: in vivo
Method: This FIH, single arm, multicenter, phase 1 study was conducted in advanced NSCLC patients with ALK or ROS1 rearrangement, composed of the dose-escalation and dose-expansion phases. The dose-escalation and dose-expansion phases were conducted at 4 and 38 centers in mainland China, respectively (Supplementary Table S1), and were done in compliance with the Declaration of Helsinki and International Council for Harmonisation guidelines for Good Clinical Practice. The study protocol and amendments were approved by the independent ethics committee at every participating site. Written informed consent was provided by all patients before being screened for enrolment.
ALK and ROS1 rearrangements were established by immunohistochemistry, reverse transcription-polymerase chain reaction (PCR), amplification refractory mutation system-PCR, fluorescence in situ hybridization, or next-generation sequencing. Patients must have at least one measurable lesion as defined by Response Evaluation Criteria in Solid Tumors (RECIST) version 1.1. Other key eligibility criteria included an age of 18–70 years, an Eastern Cooperative Oncology Group performance status of 0 or 1, a life expectancy of at least 12 weeks, and adequate organ function, including adequate function of bone marrow (absolute neutrophil count ≥1.5 × 10^9/L, platelets ≥100 × 10^9/L, hemoglobin ≥90 g/L) and liver function (total bilirubin ≤1.5× upper limit of normal [ULN], ALT and AST ≤2.5× ULN [≤5.0× ULN for liver metastasis patients]).
In the dose-escalation phase, a standard 3 + 3 design was used to determine the MTD.[29]
Three patients were assigned to each dose level.
Patients continued treatment until documented disease progression, unacceptable toxicity, withdrawal of consent, the start of a new anticancer treatment, death, loss of follow-up, or end of the study (whichever occurred first). Patients were permitted to continue treatment after progression if they were still experiencing clinical benefit, at the discretion of the investigator.
For grade ≥3 AEs (also including grade ≥2 cardiac dysfunction and renal dysfunction, etc.), dose interruption could occur.
Patients performed imaging evaluation at baseline, with computed tomography or magnetic resonance imaging of the chest, abdomen, pelvis, and brain. […] In the dose-expansion phase, tumor response was assessed every 6 weeks until 48 weeks and every 12 weeks thereafter until documented disease progression. If responses (CR or PR) were observed, repeat assessments were required to confirm the responses 4 weeks after the initial evaluation. Tumor responses were assessed by local investigators according to RECIST 1.1.
Safety parameters included TEAEs, SAEs, and TRAEs.

[8] = in vivo; details: male
[9] = TEAE, Grade 1–2, total (n = 152)
[10] = TEAE, ≥Grade 3, total (n = 152)
[11] = TEAE, ≥Grade 3, dose: 30, 60, 90, 120, 180, 240, 300 mg
[12] = TRAE, ≥grade 3, dose: 30, 60, 90, 120, 180, 240, 300 mg

Eta, sequence (P25101 21-427): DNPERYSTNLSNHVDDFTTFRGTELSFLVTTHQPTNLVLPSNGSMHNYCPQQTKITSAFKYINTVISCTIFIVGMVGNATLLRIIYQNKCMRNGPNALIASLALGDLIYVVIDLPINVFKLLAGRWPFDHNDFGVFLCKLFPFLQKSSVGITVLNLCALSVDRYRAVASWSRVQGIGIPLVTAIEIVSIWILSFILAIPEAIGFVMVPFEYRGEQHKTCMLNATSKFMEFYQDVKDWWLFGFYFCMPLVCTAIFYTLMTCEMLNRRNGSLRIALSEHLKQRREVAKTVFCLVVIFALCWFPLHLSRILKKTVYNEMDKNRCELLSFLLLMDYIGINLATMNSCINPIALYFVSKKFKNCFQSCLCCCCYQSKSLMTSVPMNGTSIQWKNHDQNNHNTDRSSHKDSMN

SMILES: COc1cc(N2CCC3(CCN(C)CC3)CC2)ccc1Nc1ncc(Cl)c(Nc2ccccc2P(C)(C)=O)n1 [WX-0593]
- IC50 [1]: > 111000 nM
- IC50 [2]: 500 nM
- growth inhibition [3]: significantly inhibits the growth
- murine effective dose [4]: 2.5 mg/kg
- AUC(0-t) ([4]; nude, 2.5 mg/kg): 3700 ng·h/mL
- MTD [5]: 50 mg/kg
- AUC(0-t) ([5]; female): 50600 ng·h/mL
- Cmax ([5]; female): 4010 ng/mL
- AUC(0-t) ([5]; male): 35000 ng·h/mL
- Cmax ([5]; male): 2180 ng/mL
- growth inhibition [6]: somewhat inhibits the growth
- Dizziness, patients n (%) [7]: 0
- ALT elevated, patients n (%) [7, 9]: 39 (26%)
- AST elevated, patients n (%) [7, 9]: 41 (27%)
- CPK elevated, patients n (%) [7, 9]: 31 (20%)
- Dizziness, patients n (%) [7, 9]: 16 (11%)
- Headache, patients n (%) [7, 9]: 14 (9%)
- Hypertension, patients n (%) [7, 9]: 24 (16%)
- Hypertriglyceridemia, patients n (%) [7, 9]: 32 (21%)
- Upper respiratory infection, patients n (%) [7, 9]: 16 (11%)
- diarrhea, patients n (%) [7, 9]: 21 (14%)
- hypercholesterolemia, patients n (%) [7, 9]: 42 (28%)
- hyperlipidemia, patients n (%) [7, 9]: 21 (14%)
- nausea, patients n (%) [7, 9]: 48 (32%)
- rash, patients n (%) [7, 9]: 19 (13%)
- γ-GGT elevated, patients n (%) [7, 9]: 12 (8%)
- Headache, patients n (%) ([7]; TEAE, all grade, total (n = 152)): 14 (9%)
- ALT elevated, patients n (%) [7, 10]: 6 (4%)
- AST elevated, patients n (%) [7, 10]: 6 (4%)
- CPK elevated, patients n (%) [7, 10]: 0
- Headache, patients n (%) [7, 10]: 0
- Hypertension, patients n (%) [7, 10]: 9 (6%)
- Hypertriglyceridemia, patients n (%) [7, 10]: 5 (3%)
- Upper respiratory infection, patients n (%) [7, 10]: 1 (1%)
- diarrhea, patients n (%) [7, 10]: 1 (1%)
- hypercholesterolemia, patients n (%) [7, 10]: 5 (3%)
- hyperlipidemia, patients n (%) [7, 10]: 1 (1%)
- nausea, patients n (%) [7, 10]: 0
- rash, patients n (%) [7, 10]: 1 (1%)
- vomiting, patients n (%) [7, 10]: 0
- γ-GGT elevated, patients n (%) [7, 10]: 5 (3%)
- CPK elevated, patients n (%) [7, 11]: 0
- Dizziness, patients n (%) [7, 11]: 0
- Headache, patients n (%) [7, 11]: 0
- nausea, patients n (%) [7, 11]: 0
- vomiting, patients n (%) [7, 11]: 0
- ALT elevated, patients n (%) ([7]; TRAE, grade 1-2, total (n=152)): 38(25%)
- AST elevated, patients n (%) ([7]; TRAE, grade 1-2, total (n=152)): 41(27%)
- CPK elevated, patients n (%) ([7]; TRAE, grade 1-2, total (n=152)): 25(16%)
- Hypertension, patients n (%) ([7]; TRAE, grade 1-2, total (n=152)): 18(12%)
- Hypertriglyceridemia, patients n (%) ([7]; TRAE, grade 1-2, total (n=152)): 28(18%)
- diarrhea, patients n (%) ([7]; TRAE, grade 1-2, total (n=152)): 21(14%)
- hypercholesterolemia, patients n (%) ([7]; TRAE, grade 1-2, total (n=152)): 39(26%)
- hyperlipidemia, patients n (%) ([7]; TRAE, grade 1-2, total (n=152)): 15(10%)
- nausea, patients n (%) ([7]; TRAE, grade 1-2, total (n=152)): 43(28%)
- rash, patients n (%) ([7]; TRAE, grade 1-2, total (n=152)): 15(10%)
- vomiting, patients n (%) ([7]; TRAE, grade 1-2, total (n=152)): 37(24%)
- γ-GGT elevated, patients n (%) ([7]; TRAE, grade 1-2, total (n=152)): 10(7%)
- CPK elevated, patients n (%) ([7]; TRAE, ≥grade 3, total (n=152)): 0
- diarrhea, patients n (%) ([7]; TRAE, ≥grade 3, total (n=152)): 1(1%)
- hypercholesterolemia, patients n (%) ([7]; TRAE, ≥grade 3, total (n=152)): 1(1%)
- hyperlipidemia, patients n (%) ([7]; TRAE, ≥grade 3, total (n=152)): 0
- nausea, patients n (%) ([7]; TRAE, ≥grade 3, total (n=152)): 0
- rash, patients n (%) ([7]; TRAE, ≥grade 3, total (n=152)): 1(1%)
- vomiting, patients n (%) ([7]; TRAE, ≥grade 3, total (n=152)): 0
- CPK elevated, patients n (%) [7, 12]: 0
- hyperlipidemia, patients n (%) [7, 12]: 0
- nausea, patients n (%) [7, 12]: 0
- vomiting, patients n (%) [7, 12]: 0
- maximum tolerated dose (MTD) ([7]; dose-escalation 30–300 mg): could not be identified; also recorded: not reached
- dose-limiting toxicities (DLTs) ([7]; dose-escalation, 300 mg, in 1 of 3 patients: grade 3 QT interval prolonged, grade 2 chronic heart failure): Two
- AE led to dose interruption, patients n (%) ([7]; total (n=152)): 30(20%)
- AE led to dose interruption, treatment-related, patients n (%) ([7]; total (n=152)): 30 (20%) and 27(18%)
- AE led to dose reduction, treatment-related, patients n (%) ([7]; total (n=152)): 4 (3%)
- AE led to treatment termination, patients n (%) ([7]; total (n=152)): 11(7%)
- Adverse events, total, patients n (%) ([7]; total (n=152)): 148 (97%)
- Death during treatment, not related with disease progression, patients n (%) ([7]; total (n=152)): 6(4%)
- Death during treatment, related with disease progression, patients n (%) ([7]; total (n=152)): 1(1%)
- Discontinuation due to adverse event, patients n (%) ([7]; total (n=152)): 11(7%)
- Discontinuation due to adverse event, treatment-related, patients n (%) ([7]; total (n=152)): 8(5%)
- Serious adverse event, patients n (%) ([7]; total (n=152)): 25 (16%)
- ≥grade 3 adverse event, patients n (%) ([7]; total (n=152)): 53 (35%)
- MTD [8]: 200 mg/kg
